# Reference: patent US6180664A (priority 1996, dated 2001)
# Key:
# [1] = test system: isolated rabbit aortic rings; test: tissue or blood
# [2] = test system: blood; conditions: cited from earlier work
smiles,measurement,setting,value
"CCOC(=O)C(CO[N+](=O)[O-])(CO[N+](=O)[O-])C(=O)OCC [Bis-MA diethyl ester, Diethyl 2,2-bis(nitryloxymethyl)malonate]",EC50,"[1]; Oryctolagus cuniculus, read-out: pD2 value (converted)",251 nM
"O=[N+]([O-])OCC(CO)(CO)CO [PEMN, pentaerythrityl mononitrate]",pD2 value,[1],5
CCCCCCCCCCCCCCCCOCC(COP(=O)([O-])OCC[N+](C)(C)C)OC(C)=O (stereo not shown) [platelet activation factor],concentration inducing platelet aggregation,[2],0.1 nM
same,concentration inducing vasodilation,[2],0.1 nM
